Data set [1] is described as follows: Selectivity index, ratio of IC50 for inhibition of recombinant PI3Kbeta (unknown origin) using PIP2:3PS as substrate to IC50 for inhibition of recombinant PI3Kdelta (unknown origin) using PIP2:3PS as substrate.
The subject of a further data set is Raji. Nature of the data set: Growth inhibition of human Raji cells incubated for 72 hrs by MTT assay. The data set is classed as functional. (In general: Formazan colour is commonly taken as a measure of viable cells.)
The nature of data set [2]: Growth inhibition of PI3Kdelta-overexpressing human SU-DHL-6 cells incubated for 72 hrs by MTT assay. Type of data set: functional.
Data set [3] in a line: Selectivity index, ratio of IC50 for inhibition of recombinant PI3Kalpha (unknown origin) using PIP2:3PS as substrate to IC50 for inhibition of recombinant PI3Kdelta (unknown origin) using PIP2:3PS as substrate.
Data set [4] in a line: Selectivity index, ratio of IC50 for inhibition of recombinant PI3Kgamma (unknown origin) using PIP2:3PS as substrate to IC50 for inhibition of recombinant PI3Kdelta (unknown origin) using PIP2:3PS as substrate.
Data set [5] concerns the target T1, Phosphatidylinositol 4,5-bisphosphate 3-kinase catalytic subunit delta isoform (Homo sapiens) (UniProt O00329).
T1 sequence (whole entry): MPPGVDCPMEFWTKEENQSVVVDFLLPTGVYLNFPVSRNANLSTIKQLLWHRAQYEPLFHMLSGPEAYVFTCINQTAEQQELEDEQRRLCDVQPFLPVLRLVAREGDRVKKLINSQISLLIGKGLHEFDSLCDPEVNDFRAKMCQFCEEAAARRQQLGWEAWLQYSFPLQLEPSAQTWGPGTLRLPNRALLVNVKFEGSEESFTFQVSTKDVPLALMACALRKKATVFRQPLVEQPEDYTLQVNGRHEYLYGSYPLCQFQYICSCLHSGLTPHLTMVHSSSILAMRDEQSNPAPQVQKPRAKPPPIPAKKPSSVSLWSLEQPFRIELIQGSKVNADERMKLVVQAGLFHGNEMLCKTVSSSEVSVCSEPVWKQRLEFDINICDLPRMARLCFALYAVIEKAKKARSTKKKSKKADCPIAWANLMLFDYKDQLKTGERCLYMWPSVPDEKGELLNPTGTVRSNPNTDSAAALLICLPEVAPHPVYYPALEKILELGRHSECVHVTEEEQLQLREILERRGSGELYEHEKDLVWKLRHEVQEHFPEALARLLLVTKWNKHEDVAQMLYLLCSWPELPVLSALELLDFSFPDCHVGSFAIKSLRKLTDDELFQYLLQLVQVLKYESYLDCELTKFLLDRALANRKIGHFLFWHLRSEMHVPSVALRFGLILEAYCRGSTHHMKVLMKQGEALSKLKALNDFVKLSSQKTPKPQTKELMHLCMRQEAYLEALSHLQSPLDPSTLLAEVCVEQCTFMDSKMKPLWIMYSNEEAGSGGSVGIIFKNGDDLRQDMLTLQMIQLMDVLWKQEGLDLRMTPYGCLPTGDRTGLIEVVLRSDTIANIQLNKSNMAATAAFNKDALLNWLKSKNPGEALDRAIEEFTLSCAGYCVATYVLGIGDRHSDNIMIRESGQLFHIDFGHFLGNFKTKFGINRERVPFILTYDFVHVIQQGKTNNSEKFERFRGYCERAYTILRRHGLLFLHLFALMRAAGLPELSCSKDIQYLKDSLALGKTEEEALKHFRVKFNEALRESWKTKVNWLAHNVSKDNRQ
As to the kind of experiment: Covalent inhibition of PI3Kdelta (unknown origin) using PIP2:3PS as substrate assessed as second order rate constant (Kinact/Ki ratio) incubated upto 180 mins in presence of ATP by ADP-Glo reagent based assay. A general note: ADP-Glo first removes unused ATP, then detects ADP through luciferase.

In data set [6] the target is Phosphatidylinositol 4,5-bisphosphate 3-kinase catalytic subunit alpha isoform (Homo sapiens, UniProt P42336). Nature of the data set: Inhibition of recombinant PI3Kalpha (unknown origin) using PIP2:3PS as substrate preincubated for 20 mins followed by ATP addition and measured after 1 hrs by ADP-Glo reagent based assay.
Data set [7] in a line: Chemical reactivity of the compound with N-Boc-Lysine assessed as half-life at 1 uM by HPLC analysis. The settings on record: incubation with N-Boc-Lysine. The data set is classed as physicochemical.
The target in data set [8] is T2, Phosphatidylinositol 4,5-bisphosphate 3-kinase catalytic subunit delta isoform (Homo sapiens, UniProt O00329).
T2 sequence (O00329 whole entry): T1 sequence (whole entry)
As to the kind of experiment: Inhibition of recombinant PI3Kdelta (unknown origin) using PIP2:3PS as substrate preincubated for 20 mins followed by ATP addition and measured after 1 hrs by ADP-Glo reagent based assay.

Data set [9] in a line: Growth inhibition of PI3Kdelta-overexpressing human Pfeiffer cells incubated for 72 hrs by MTT assay. The data set is classed as functional.
The test system of data set [10] is SU-DHL-6. Nature of the data set: Inhibition of AKT phosphorylation in human SU-DHL-6 cells preincubated for 12 hrs followed by compound washout and measured upto 72 hrs by Western blot analysis. The data set is classed as cell-based. Background: Immunoblotting shows a protein as a band on a membrane.
The subject of data set [11] is SU-DHL-6. Nature of the data set: Inhibition of AKT phosphorylation in human SU-DHL-6 cells preincubated for 12 hrs followed by compound washout and measured after 24 hrs by Western blot analysis. Type of data set: cell-based.
In data set [12] the test system is SU-DHL-6. As to the kind of experiment: Antiproliferative activity against human SU-DHL-6 cells assessed as inhibition of cell viability preincubated for 12 hrs followed by compound washout and measured after 60 hrs by MTT assay. The data set is classed as functional, cell-based.
Data set [13] has as its target Phosphatidylinositol 4,5-bisphosphate 3-kinase catalytic subunit gamma isoform (Homo sapiens, UniProt P48736). Nature of the data set: Inhibition of recombinant PI3Kgamma (unknown origin) using PIP2:3PS as substrate preincubated for 20 mins followed by ATP addition and measured after 1 hrs by ADP-Glo reagent based assay.
In a further data set the test system is HCT-116. As to the kind of experiment: Growth inhibition of human HCT-116 cells incubated for 72 hrs by MTT assay. The data set is classed as functional.
Data set [14] concerns the target Phosphatidylinositol 4,5-bisphosphate 3-kinase catalytic subunit beta isoform (Homo sapiens, UniProt P42338). Nature of the data set: Inhibition of recombinant PI3Kbeta (unknown origin) using PIP2:3PS as substrate preincubated for 20 mins followed by ATP addition and measured after 1 hrs by ADP-Glo reagent based assay.
The subject of the next data set is MCF7. As to the kind of experiment: Growth inhibition of human MCF7 cells incubated for 72 hrs by MTT assay. Type of data set: functional.

Calls of active or inactive are those of the source. The calls are words filed in the database; no cut-off is given here.

Sequence of Phosphatidylinositol 4,5-bisphosphate 3-kinase catalytic subunit alpha isoform (P42336 whole entry, canonical isoform): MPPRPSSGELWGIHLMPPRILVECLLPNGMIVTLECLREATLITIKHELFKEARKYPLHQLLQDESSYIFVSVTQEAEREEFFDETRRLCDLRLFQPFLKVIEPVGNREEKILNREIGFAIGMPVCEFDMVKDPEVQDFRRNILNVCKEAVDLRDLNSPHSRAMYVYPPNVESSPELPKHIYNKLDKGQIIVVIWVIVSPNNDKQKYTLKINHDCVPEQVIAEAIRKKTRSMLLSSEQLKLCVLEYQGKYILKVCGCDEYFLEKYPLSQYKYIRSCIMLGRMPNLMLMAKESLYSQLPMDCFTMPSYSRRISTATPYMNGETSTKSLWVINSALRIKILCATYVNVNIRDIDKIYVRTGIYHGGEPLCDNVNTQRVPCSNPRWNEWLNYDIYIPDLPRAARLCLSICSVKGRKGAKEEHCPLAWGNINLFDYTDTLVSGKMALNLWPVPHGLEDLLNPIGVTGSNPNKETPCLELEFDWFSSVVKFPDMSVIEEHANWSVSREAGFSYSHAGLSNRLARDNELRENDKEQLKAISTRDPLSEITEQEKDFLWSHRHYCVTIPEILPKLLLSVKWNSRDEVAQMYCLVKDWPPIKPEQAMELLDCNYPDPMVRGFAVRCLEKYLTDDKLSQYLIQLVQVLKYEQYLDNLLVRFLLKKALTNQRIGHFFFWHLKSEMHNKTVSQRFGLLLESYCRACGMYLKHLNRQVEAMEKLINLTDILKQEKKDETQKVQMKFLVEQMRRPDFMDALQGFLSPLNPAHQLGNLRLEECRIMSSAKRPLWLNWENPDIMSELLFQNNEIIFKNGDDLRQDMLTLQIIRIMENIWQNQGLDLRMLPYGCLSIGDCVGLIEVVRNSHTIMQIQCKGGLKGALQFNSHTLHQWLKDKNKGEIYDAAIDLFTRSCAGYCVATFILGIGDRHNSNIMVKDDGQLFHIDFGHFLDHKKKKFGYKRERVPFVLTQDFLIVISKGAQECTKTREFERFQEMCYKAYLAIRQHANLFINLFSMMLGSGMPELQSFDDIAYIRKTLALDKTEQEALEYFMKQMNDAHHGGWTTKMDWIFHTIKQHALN
Sequence of Phosphatidylinositol 4,5-bisphosphate 3-kinase catalytic subunit gamma isoform (P48736 whole entry, canonical isoform): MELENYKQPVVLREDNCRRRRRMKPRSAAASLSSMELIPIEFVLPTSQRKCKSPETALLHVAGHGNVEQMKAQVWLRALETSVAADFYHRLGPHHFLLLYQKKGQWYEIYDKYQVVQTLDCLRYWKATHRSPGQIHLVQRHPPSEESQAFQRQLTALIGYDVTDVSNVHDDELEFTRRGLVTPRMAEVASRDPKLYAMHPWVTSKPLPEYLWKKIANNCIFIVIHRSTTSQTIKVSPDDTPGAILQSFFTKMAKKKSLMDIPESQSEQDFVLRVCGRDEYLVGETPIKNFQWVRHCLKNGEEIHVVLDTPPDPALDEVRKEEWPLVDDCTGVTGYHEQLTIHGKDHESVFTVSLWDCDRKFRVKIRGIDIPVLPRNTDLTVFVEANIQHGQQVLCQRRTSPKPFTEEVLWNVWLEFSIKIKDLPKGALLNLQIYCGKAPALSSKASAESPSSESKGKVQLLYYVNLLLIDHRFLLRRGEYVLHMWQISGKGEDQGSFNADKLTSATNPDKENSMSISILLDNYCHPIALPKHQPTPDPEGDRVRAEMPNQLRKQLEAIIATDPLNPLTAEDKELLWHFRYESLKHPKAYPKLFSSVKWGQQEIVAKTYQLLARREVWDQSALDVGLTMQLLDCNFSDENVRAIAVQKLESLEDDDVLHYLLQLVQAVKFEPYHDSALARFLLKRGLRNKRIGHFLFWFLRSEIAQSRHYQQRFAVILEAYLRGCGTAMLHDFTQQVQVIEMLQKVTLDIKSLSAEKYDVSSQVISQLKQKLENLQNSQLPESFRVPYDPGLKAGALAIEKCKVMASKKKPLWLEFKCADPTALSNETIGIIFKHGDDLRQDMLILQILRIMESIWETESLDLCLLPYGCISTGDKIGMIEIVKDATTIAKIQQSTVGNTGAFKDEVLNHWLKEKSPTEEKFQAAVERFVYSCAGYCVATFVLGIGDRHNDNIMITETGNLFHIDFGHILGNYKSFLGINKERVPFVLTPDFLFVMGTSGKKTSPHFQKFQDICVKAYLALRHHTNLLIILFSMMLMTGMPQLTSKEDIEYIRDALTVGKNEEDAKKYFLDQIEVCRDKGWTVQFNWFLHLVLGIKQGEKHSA
Sequence of Phosphatidylinositol 4,5-bisphosphate 3-kinase catalytic subunit beta isoform (P42338 whole entry, canonical isoform): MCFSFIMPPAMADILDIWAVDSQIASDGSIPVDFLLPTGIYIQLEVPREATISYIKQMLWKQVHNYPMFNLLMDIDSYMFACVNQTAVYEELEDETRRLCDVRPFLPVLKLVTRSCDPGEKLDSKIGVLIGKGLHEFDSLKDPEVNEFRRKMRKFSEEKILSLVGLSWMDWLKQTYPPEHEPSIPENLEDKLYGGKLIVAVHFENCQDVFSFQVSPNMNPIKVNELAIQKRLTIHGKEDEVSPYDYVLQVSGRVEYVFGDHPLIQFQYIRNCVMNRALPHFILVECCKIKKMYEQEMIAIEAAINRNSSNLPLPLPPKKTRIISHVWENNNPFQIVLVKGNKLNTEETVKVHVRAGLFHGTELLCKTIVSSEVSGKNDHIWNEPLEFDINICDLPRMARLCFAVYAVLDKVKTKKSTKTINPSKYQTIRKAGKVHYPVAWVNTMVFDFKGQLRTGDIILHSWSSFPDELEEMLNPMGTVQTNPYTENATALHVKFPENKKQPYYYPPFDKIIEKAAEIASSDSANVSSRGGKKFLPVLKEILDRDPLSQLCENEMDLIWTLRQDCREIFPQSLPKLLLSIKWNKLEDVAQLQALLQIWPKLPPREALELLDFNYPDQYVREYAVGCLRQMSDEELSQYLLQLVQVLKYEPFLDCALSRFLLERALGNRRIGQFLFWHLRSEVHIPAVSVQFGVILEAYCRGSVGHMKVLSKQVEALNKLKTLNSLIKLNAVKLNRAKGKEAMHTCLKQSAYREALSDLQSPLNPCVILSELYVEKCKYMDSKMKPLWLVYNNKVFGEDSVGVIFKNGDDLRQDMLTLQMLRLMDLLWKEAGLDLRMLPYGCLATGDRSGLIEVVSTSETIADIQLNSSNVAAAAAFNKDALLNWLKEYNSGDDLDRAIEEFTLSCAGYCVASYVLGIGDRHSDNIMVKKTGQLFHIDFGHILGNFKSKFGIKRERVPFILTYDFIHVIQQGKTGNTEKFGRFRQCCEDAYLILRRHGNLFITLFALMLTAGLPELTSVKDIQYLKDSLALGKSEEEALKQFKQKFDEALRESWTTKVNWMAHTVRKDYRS

As a reminder, the GI50 is the concentration that inhibits growth by half. A high value points to lower sensitivity of the cells. Regarding `COc1ncc(-c2ccc3ncnc(N[C@H]4CCN(C(=O)C5CCOCC5)C4)c3c2)cc1C#N`, the Ratio IC50 worked out at 97 in [1], 9 in [3] and 64 in [4]. Further, the values for the GI50 (with Raji; in [2]) were > 10 µM and 4550 nM, respectively.

In the case of `COc1ncc(-c2cc(-c3ncc(CN4CCN(C(C)C)CC4)o3)c3cn[nH]c3c2)cc1C(=O)Oc1ccc(F)cc1`, the Ratio in [5] was 3.75 10^4/M/s.

In general, IC50 refers to the concentration at which inhibition is half-maximal. For orientation: half-life means the time in which the quantity being followed falls by half. `COc1ncc(-c2ccc3ncnc(N[C@H]4CCN(C(=O)C5CCOCC5)C4)c3n2)cc1C(=O)Oc1ccc(Cl)cc1`: the GI50 in [2] worked out at 157 nM; in data set [9], 776 nM. Moreover, the 50% inhibitory concentration (IC50) is > 1000 nM in [6] and 2.57 nM in [8]. The half-life at 1 µM in data set [7] came out at 10.1 min.

As to `COc1ncc(-c2ccc3ncnc(N[C@H]4CCN(C(=O)C5CCOCC5)C4)c3c2)cc1C(=O)Oc1ccc(F)cc1`, the inhibition result with SU-DHL-6 [10] and in the data set with SU-DHL-6 [11] was “Active” throughout. In addition, the Ratio IC50 in data set [1] came out at 13; in data set [3] it was 11; in [4], 92. The GI50 with Raji was 7.59 µM; in data set [2], 3 nM; in the data set on HCT-116 it was 1520 nM; in the data set on MCF7 it was > 10 µM; in data set [9], 130 nM. Further, the outcome in the data set on SU-DHL-6 [12] was Active. The half-inhibitory concentration (IC50) amounted to 25.6 nM in data set [6], 208 nM in data set [13], 2.24 nM in [8] and 30 nM in data set [14]. The half-life at 1 µM in [7] is 67 min.

`COc1ncc(-c2ccc3ncnc(N[C@H]4CCN(C(=O)C5CCOCC5)C4)c3c2)cc1C(=O)Oc1ccc(C(F)(F)F)cc1`: the results for the GI50 in data set [2] and in [9] were 133 nM and 816 nM, respectively. Also, the IC50 in data set [6] worked out at 330 nM; in [8], 0.93 nM. Also, the half-life at 1 µM in data set [7] stood at 1.9 min.

As to `COc1ncc(-c2ccc3ncnc(N[C@H]4CCN(C(=O)C5CCOCC5)C4)c3c2)cc1C(=O)Oc1cccnc1`, the results for the GI50 in data set [2] and in data set [9] were 19 nM and 199 nM, respectively. Further, the figures for the IC50 in data set [6] and in data set [8] were 663 nM and 0.26 nM, respectively. Besides, the half-life at 1 µM in data set [7] came out at 2.5 min.

On to `COc1ncc(-c2ccc3ncnc(N[C@H]4CCN(C(=O)C5CCOCC5)C4)c3c2)cc1C(=O)Oc1c(F)cc(F)cc1F`, for which the GI50 is 32 nM in data set [2] and 260 nM in data set [9]. Further, the IC50 in [6] was 86.9 nM; in [8] it was 1.08 nM. For the same compound, the half-life at 1 µM in data set [7] is < 1 min.

In the case of `COc1ncc(-c2ccc3ncnc(N[C@H]4CCN(C(=O)C5CCOCC5)C4)c3n2)cc1C(=O)Oc1ccc(F)cc1`, the inhibition result with SU-DHL-6 [10] and in the data set with SU-DHL-6 [11] was “Active” each time. Besides, the GI50 is 6.61 µM in the data set with Raji; 4 nM in data set [2]; 2140 nM with HCT-116; 6.33 µM with MCF7; 97 nM in [9]. The Ratio IC50 was found to be 3 in data set [3] and 14 in [4]. In addition, in the data set on SU-DHL-6 [12], the result was Active. Further, the IC50 in [6] is 14.1 nM; in [13] it was 63.7 nM; in data set [8] it was 4.45 nM; in data set [14], 241 nM. The half-life at 1 µM in data set [7] turned out to be 55 min.

These data come from ChEMBL document CHEMBL6127139, “Lysine-Targeted Covalent Inhibitors of PI3Kδ Synthesis and Screening by In Situ Interaction Upgradation” (J Med Chem, 2024).
